Results reported in BindingDB's records for doi:10.1021/acs.jmedchem.6b00108 (University of Montreal, 2016).
Where a SMILES comes first, the peptide text is derived from it.

What was measured:
[1] = Antagonist activity at UT2 receptor in Sprague-Dawley rat thoracic aorta ring assessed as pEC50 for hU2-induced aortic contractions at 10^-5M relative to KCl
[2] = Antagonist activity at UT2 receptor in Sprague-Dawley rat thoracic aorta ring assessed as pEC50 for URP -induced aortic contractions at 10^-5M relative to KCl

| Structure (SMILES) | EC50 [1] [nM] | EC50 [2] [nM] |
| --- | --- | --- |
| CC(C)[C@H](NC(=O)[C@@H]1CSSC[C@H](NC(=O)[C@@H](N)CC(=O)O)C(=O)N[C@@H](Cc2ccccc2)C(=O)NN(Cc2cccc3ccccc23)S(=O)(=O)N[C@@H](CCCCN)C(=O)N[C@@H](Cc2ccc(O)cc2)C(=O)N1)C(=O)O | 5 | 7.9 |
| CC(C)[C@H](NC(=O)[C@@H]1CSSC[C@H](NC(=O)[C@@H](N)CC(=O)O)C(=O)N[C@@H](Cc2ccccc2)C(=O)NN(Cc2ccc3ccccc3c2)S(=O)(=O)N[C@@H](CCCCN)C(=O)N[C@@H](Cc2ccc(O)cc2)C(=O)N1)C(=O)O | 15 | 9.5 |
| CC(C)[C@H](NC(=O)[C@@H]1CSSC[C@H](NC(=O)[C@@H](N)CC(=O)O)C(=O)N[C@@H](Cc2ccccc2)C(=O)N[C@@H](Cc2c[nH]c3ccccc23)C(=O)NN(CCCCN(C)C)S(=O)(=O)N[C@@H](Cc2ccc(O)cc2)C(=O)N1)C(=O)O (HELM PEPTIDE1{D.C.F.W.[CN(C)CCCCN(N[*:1])S(=O)(=O)N[C@@H](Cc1ccc(O)cc1)C(=O)[*:2]].C.V}$PEPTIDE1,PEPTIDE1,2:R3-6:R3$$$V2.0) | 1.6 | 3.7 |
| CC(C)[C@H](NC(=O)[C@@H]1CSSC[C@H](NC(=O)[C@@H](N)CC(=O)O)C(=O)N[C@@H](Cc2ccccc2)C(=O)NN(Cc2ccccc2)S(=O)(=O)N[C@@H](CCCCN)C(=O)N[C@@H](Cc2ccc(O)cc2)C(=O)N1)C(=O)O (HELM PEPTIDE1{D.C.F.[NCCCC[C@H](NS(=O)(=O)N(Cc1ccccc1)N[*:1])C(=O)[*:2]].Y.C.V}$PEPTIDE1,PEPTIDE1,2:R3-6:R3$$$V2.0) | 4.8 | 3.5 |
